Assay results reported in patent US6376488B1, “Benzoxazine α-1 adrenergic compounds” (Abbott Laboratories, priority 2000, dated 2002).
Counter-ions that a name gives are not always drawn.

Assays:
[1] = biological target: T1, α1b (Hamster) adrenoreceptor (Mesocricetus auratus, UniProt P18841); test: [3H]-prazosin radioligand binding, cloned α1b (hamster) adrenoreceptor in LTK cells; settings: cloned receptor in LTK cell membranes, [3H]prazosin 0.2 nM
T1 sequence (P18841 1-515): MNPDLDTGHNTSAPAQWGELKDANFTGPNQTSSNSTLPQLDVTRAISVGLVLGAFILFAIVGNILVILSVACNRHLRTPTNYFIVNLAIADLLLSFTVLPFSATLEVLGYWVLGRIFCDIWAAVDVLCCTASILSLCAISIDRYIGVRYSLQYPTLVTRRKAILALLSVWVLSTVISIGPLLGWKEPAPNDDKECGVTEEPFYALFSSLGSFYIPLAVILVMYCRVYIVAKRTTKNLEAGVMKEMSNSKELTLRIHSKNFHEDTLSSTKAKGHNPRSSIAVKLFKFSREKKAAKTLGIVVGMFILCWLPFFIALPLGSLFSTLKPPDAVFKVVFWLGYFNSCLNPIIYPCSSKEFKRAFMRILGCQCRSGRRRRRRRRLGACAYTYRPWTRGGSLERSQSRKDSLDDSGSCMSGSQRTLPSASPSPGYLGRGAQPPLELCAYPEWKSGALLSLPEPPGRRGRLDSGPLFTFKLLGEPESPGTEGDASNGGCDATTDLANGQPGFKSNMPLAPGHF
From the text: The cDNA clones encoding the α1, adrenoreceptors were obtained from TULCO (Triangle Universities Licensing Consortium, Research Triangle Park, N.C.) and inserted into the eukaryotic expression vector SnaB30. In this vector, expression of the adrenoreceptor gene is under the transcriptional control of an SV40 early promoter. Positive drug selection is provided by a neomycin-resistance gene. Mouse fibroblast cells (LTK) were transfected with the α1 expression plasmids and grown in Dulbecco's modified Eagle's medium (DMEM) containing 10% fetal calf serum and 30 μM G418. […] Stable single cell clones derived from the parental lines were screened in adrenoreceptor binding assays to identify clones having high adrenoreceptor density. Roller bottle cultures of the cloned lines were used to provide cell membranes for subsequent adrenoreceptor binding characterization studies. A cell line containing the SnaB30 vector expressing the human erythropoietin gene served as a negative control.
For adrenoreceptor binding assays, large scale membrane preparations were utilized in which 6 million cells were seeded into small (450 cm^2) Coming tissue culture roller bottles. DMEM (200 mL) containing 10% fetal calf serum and 300 μM G418 were added to each roller bottle. A 95% air/5% CO2 gas mixture (sterile) was injected into each roller bottle prior to sealing, and the bottles were then incubated at 37° C. on a roller rack for 5 days. Cells were refed with fresh medium after 3 days in culture.
On the fifth day of culture, growth medium was removed from cells grown in roller bottles, and the cells were washed twice with PBS (Sigma, 120 mM NaCl, 2.7 mM KCl, 10 mM Na2HPO4-NaH2PO4, pH=7.4). Cells were detached from the roller bottles by incubating for 15 minutes at 37° C. in a Tris-EDTA solution (10 mM Tris, 100 mM NaCl, 1 mM EDTA, pH=7.4). The cell suspension from each roller bottle was decanted into tared centrifuge tubes and kept on ice. An aliquot of each cell suspension was generally taken for cell counting. Cells were centrifuged at 3000×G for 5 minutes at 2-4° C., washed with PBS and recentrifuged. The supernatant was decanted, and the pellet was weighed to determine the wet weight of cells. Cells were washed a final time in 40 vol 5 mM Tris-HCl, 5 mM EDTA, pH=7.7 and centrifuged at 40,000×G for 10 minutes (“vol” indicates volume/weight, e.g., a “vol” of 40 would indicate that the one gram of cells were washed with 40 mls of buffer). Cells were homogenized in of 50 mM Tris-HCl, 5 mM EDTA (pH=7.4) (10 mL) and diluted to 40 mL/tube. Homogenates were centrifuged at 40,000×G for 10 minutes. The supernatant was decanted and the pellets rehomogenized in 50 mM Tris-HCl (pH=7.4) and centrifuged as before.
Following equilibration, bound radioligand was separated from free on GF/B filters (presoaked in 0.5% polyethyleneimine) using ither a Brandel or Packard cell harvester. Radioactivity was determined by standard liquid scintillation techniques.

| Molecule | melting point [°C] | Ki [1] [nM] |
| --- | --- | --- |
| COc1cccc2c1N1CCN(CCn3c(=O)[nH]c4c(sc5ncc(Cl)nc54)c3=O)CC1CO2.Cl.Cl (single isomer, unassigned; (+)) [Example 8, (+) 3-[2-(10-methoxy-1,2,4a,5-tetrahydropyrazino[2,1-c][1,4]benzoxazin-3(4H)-yl)ethyl]-8-chloropyrazino[2′,3′:4,5]thieno[3,2-d]pyrimidine-2,4(1H,3H)-dione dihydrochloride] | 280 to 283 | 58.1 |
| O=c1[nH]c2c(sc3cccnc32)c(=O)n1CCCCN1CCN2c3ccccc3OCC2C1 (single isomer, unassigned; (-)) [Example 4, (−) 3-[4-(1.2,4a,5-tetrahydropyrazino[2,1-c][1,4benzoxazin-3(4H)-yl)butyl]pyrido[2′,3′:4,5]thieno[3,2-d]pyrimidine-2,4(1H,3H)-dione dihydrochloride] | – | 26.5 |
| COc1cccc2c1N1CCN(CCCCn3c(=O)[nH]c4c(sc5ncc(Cl)nc54)c3=O)CC1CO2.Cl.Cl (single isomer, unassigned; (-)) [Example 12, (−) 3-[4-(10-methoxy-1,2,4a,5-tetrahydropyrazino[2,1-c][1,4]benzoxazin-3(4H)-yl)butyl]-8-chloropyrazino[2′,3′:4,5]thieno[3,2-d]pyrimidine-2,4(1H,3H)-dione dihydrochloride] | 198 to 201 | 8.91 |
| COc1cccc2c1N1CCN(CCCn3c(=O)[nH]c4c(sc5cccnc54)c3=O)CC1CO2.Cl.Cl.Cl (single isomer, unassigned; (+)) [Example 17, (+) 3-[3-(10-methoxy-1,2,4a,5-tetrahydropyrazino[2,1-c][1,4]benzoxazin-3(4H)-yl)propyl]pyrido[2′,3′:4,5]thieno[3,2-d]pyrimidine-2,4(1H,3H)-dione trihydrochloride] | 219 to 224 | 40.4 |
| COc1cccc2c1N1CCN(CCn3c(=O)[nH]c4c(sc5ncc(Cl)nc54)c3=O)CC1CO2.Cl.Cl (single isomer, unassigned; (-)) [Example 13, (−) 3-[2-(10-methoxy-1,2,4a,5-tetrahydropyrazino[2,1-c][1,4]benzoxazin-3(4H)-yl)ethyl]-8-chloropyrazino[2′,3′:4,5]thieno[3,2-d]pyrimidine-2,4(1H,3H)-dione dihydrochloride] | 280 to 282 | 39.1 |
| Cl.Cl.O=c1[nH]c2c(sc3cccnc32)c(=O)n1CCCCN1CCN2c3ccccc3OCC2C1 (single isomer, unassigned; (+)) [Example 3, (+) 3-[4-(1,2,4a,5-tetrahydropyrazino[2,1-c][1,4]benzoxazin-3(4H)-yl)butyl]pyrido[2′, 3′:4,5]thieno[3,2-d]pyrimidine-2,4(1H,3H)-dione dihydrochloride] | 278 to 280 | 32.4 |
| Cl.Cl.O=c1[nH]c2c(sc3ncccc32)c(=O)n1CCCCN1CCN2c3ccccc3OCC2C1 (single isomer, unassigned; (-)) [Example 6, (−) 3-[4-(1,2,4a,5-tetrahydropyrazino[2,1-c][1,4]benzoxazin-3(4H)-yl)butyl]pyrido[3′, 2′:4,5]thieno[3,2-d]pyrimidine-2,4(1H,3H)-dione dihydrochloride] | 290 to 293 | 27.3 |
| COc1cccc2c1N1CCN(CCCCn3c(=O)[nH]c4c(sc5ncccc54)c3=O)CC1CO2 (single isomer, unassigned; (-)) [Example 11, (−) 3-[4-(10-methoxy-1,2,4a,5-tetrahydropyrazino[2,1-c][1,4]benzoxazin-3(4H)-yl)butyl]pyrido[3′,2′:4.5]thieno[3,2-d]pyrimidine-2,4(1H,3H)-dione trihydrochloride] | – | 2.71 |
| COc1cccc2c1N1CCN(CCn3c(=O)[nH]c4c(sc5cccnc54)c3=O)CC1CO2.Cl.Cl (single isomer, unassigned; (-)) [Example 7, (−) 3-[2-(10methoxy-1,2,4a,5-tetrahydropyrazino[2,1-c][1,4]benzoxazin-3(4H)-yl)ethyl]pyrido[2′,3′:4,5]thieno[3,2-d]pyrimidine-2,4(1H,3H)-dione dihydrochloride] | 297 to 298 | 6.89 |
| Cl.Cl.O=c1[nH]c2c(sc3cccnc32)c(=O)n1CCCN1CCN2c3ccccc3OCC2C1 (single isomer, unassigned; (+)) [Example 1, (+) 3-[3-(1,2,4a,5-tetrahydropyrazino[2,1-c][1,4]benzoxazin-3(4H)-yl)propyl]pyrido[2′,3′:4,5]thieno[3,2-d]pyrimidine-2,4(1H,3H)-dione dihydrochloride] | 278 to 282 | 14.3 |
| COc1cccc2c1N1CCN(CCCCn3c(=O)[nH]c4c(sc5cccnc54)c3=O)CC1CO2 (single isomer, unassigned; (+)) [Example 14, (+) 3-[4-(10-methoxy-1,2,4a,5-tetrahydropyrazino[2,1-c][1,4]benzoxazin-3(4H)-yl)butyl]pyido [2′,3′:4,5]thieno[3,2-d]pyrimidine-2,4(1H,3H)-dione trihydrochloride] | – | 8.32 |
| (−) 3-[3-(10-methoxy-1,2,4a,5-tetrahydropyrazino[2,1-c][1,4]benzoxazin-3(4H)-yl)butyl]pyrido[2′,3′:4,5]thieno[3,2-d]pyrimidine-2,4(1H,3H)-dione trihydrochloride [Example 10] | – | 1.81 |
| O=c1[nH]c2c(sc3cccnc32)c(=O)n1CCCN1CCN2c3ccccc3OCC2C1 (single isomer, unassigned; (-)) [Example 2, (−) 3-[3-(1,2,4a,5-tetrahydropyrazino[2,1-c][1,4]benzoxazin-3(4H)-yl)propyl]pyrido[2′,3′:4,5]thieno[3,2-d]pyrimidine-2,4(1H,3H)-dione dihydrochloride] | – | 24.6 |
| COc1cccc2c1N1CCN(CCn3c(=O)[nH]c4c(sc5cccnc54)c3=O)CC1CO2.Cl.Cl.Cl (single isomer, unassigned; (+)) [Example 16, (+) 3-[2-(10-methoxy-1,2,4a,5-tetrahydropyrazino[2,1-c][1,4]benzoxazin-3(4H)-yl)ethyl]pyrido[2′,3′:4,5]thieno[3,2-d]pyrimidine-2,4(1H,3H)-dione trihydrochloride] | 301 to 302 | 11.8 |
| COc1cccc2c1N1CCN(CCCCn3c(=O)[nH]c4c(sc5ncccc54)c3=O)CC1CO2.Cl.Cl.Cl (single isomer, unassigned; (+)) [Example 15, (+) 3-[4-(10-methoxy-1,2,4a,5-tetrahydropyrazino[2,1-c][1,4]benzoxazin-3(4H)-yl)butyl]pyrido[3′,2′:4,5]thieno[3,2-d]pyrimidine-2,4(1H,3H)-dione trihydrochloride] | 225 to 230 | 13.8 |
| COc1cccc2c1N1CCN(CCCn3c(=O)[nH]c4c(sc5cccnc54)c3=O)CC1CO2.Cl.Cl.Cl (single isomer, unassigned; (-)) [Example 9, (−) 3-[3-(10-methoxy-1,2,4a,5-tetrahydropyrazino[2,1-c][1,4]benzoxazin-3(4H)-yl)propyl]pyrido[2′,3′:4,5]thieno[3,2-d]pyrimidine-2,4(1H, 3H)-dione trihydrochloride] | 215 to 220 | 3.86 |
| Cl.Cl.O=c1[nH]c2c(sc3ncccc32)c(=O)n1CCCCN1CCN2c3ccccc3OCC2C1 (single isomer, unassigned; (+)) [Example 5, (+) 3-[4-(1,2,4a,5-tetrahydropyrazino[2,1-c][1,4]benzoxazin-3(4H)-yl)butyl]pyrido[3′, 2′:4,5]thieno[3,2-d]pyrimidine-2,4(1H,3H)-dione dihydrochloride] | 288 to 291 | 40.6 |
